Laboratory results taken from patent publication US10287276B2, “Heteroaryl-1,2,4-triazole and heteroaryl-tetrazole compounds for controlling ectoparasites” (Elanco Tiergesundheit AG, priority 2016, dated 2019).

How the values were obtained:
[1] = tested on: Ctenocephalides Felis (Cat Flea); assay: Activity in vitro against Ctenocephalides felis (cat flea), Assay B; conditions: % mortality at 48 hours post infestation; for pest or weed control at 10 ppm: Ctenocephalides felis, at 10 ppm in bovine blood, read-out: efficacy (EC50)
Protocol: Activity In Vitro Against Ctenocephalides Felis (Cat Flea)—Assay B
Test compounds are added to organic bovine blood contained in an artificial feeding container. Compounds with known insecticidal activity are included to serve as positive controls. Newly emerged unfed adult fleas from a laboratory colony are aspirated into each vial. The test cages are maintained using the artificial feeding apparatus to allow ingestion of compound. Fleas are evaluated for % mortality at 48 hours post infestation. Fleas showing normal movement and/or jumping ability are considered viable and those showing no movement are scored as dead.

[2] = tested on: Rhipicephalus sanguineus (Dog Tick); assay: Activity in vitro against Rhipicephalus sanguineus (dog tick), Assay B, coated glass vials; conditions: contact with coated vials, assessment at 48 hours; for pest or weed control at 20 ppm: Rhipicephalus sanguineus, read-out: efficacy (EC50)
Protocol: Activity In Vitro Against Rhipicephalus sanguineus (Dog Tick)—Assay B
A solution of the test compounds is used to coat the inner wall of glass vials containing a filter paper on the bottom of each vial. A second filter paper is also coated and placed in the cap of the vial. Vials and caps are allowed to dry overnight. Each treated vial is infested with ticks. Contact of the ticks with residues is induced by holding the vials in a controlled environment and assessment is performed at 48 hours after application in comparison with untreated glass vials and solvent-treated glass vials.

[3] = tested on: Lucilla Cuprina (Australian Sheep Blowfly); assay: Activity in vitro against Lucilla cuprina (Australian sheep blowfly), Assay B; design: species or system L. cuprina; conditions: larvae, percent mortality at 24 hours; for pest or weed control at 10 ppm: Lucilia cuprina, compound in bovine serum, read-out: efficacy (EC50)
Protocol: Activity In Vitro Against Lucilla Cuprina (Australian Sheep Blowfly)—Assay B
Compound formulated in bovine serum is dispensed into scintillation. A dental cotton roll is added to each vial to absorb the compound solution. L. cuprina larvae are added to each treatment vial. The vials are capped and held for 24 hours in an environmental chamber at appropriate temperature, humidity and light/dark cycles. Evaluations are only made at 24 hours because dead larvae after 24 hours may be cannibalized by the remaining live ones. Vials are examined for percent mortality.

Row | SMILES | pest or weed control at 10 ppm [1] | pest or weed control at 20 ppm [2] | pest or weed control at 10 ppm [3] | EC50 [1] | EC50 [2] | EC50 [3]
1 | CC(c1ncnn1-c1ncccn1)N(CC1CC1)C(=O)c1cc(C#N)cc(C(F)(F)F)c1 (stereo not shown) [Example 50, 3-Cyano-N-(cyclopropylmethyl)-N-[1-(2-pyrimidin-2-yl-1,2,4-triazol-3-yl)ethyl]-5-(trifluoromethyl)benzamide] | > 50% | > 50% | > 50% |  |  | 
2 | C#CCN(C(=O)c1cccc(C#N)c1)C(C)c1ncnn1-c1ncccn1 (stereo not shown) [Example 54, 3-Cyano-N-prop-2-ynyl-N-[1-(2-pyrimidin-2-yl-1,2,4-triazol-3-yl)ethyl]benzamide] | > 50% | > 50% |  |  |  | 
3 | CC(c1ncnn1-c1ncccn1)N(C)C(=O)c1cccc(C#N)c1 (stereo not shown) [Example 55, 3-Cyano-N-methyl-N-[1-(2-pyrimidin-2-yl-1,2,4-triazol-3-yl)ethyl]benzamide] | > 50% | > 50% |  |  |  | 
4 | CC(c1ncnn1-c1ncccn1)N(CC#N)C(=O)c1cc(C(F)(F)F)cc(C(F)(F)F)c1 (stereo not shown) [Example 56, N-(Cyanomethyl)-N-[1-(2-pyrimidin-2-yl-1,2,4-triazol-3-yl)ethyl]-3,5-bis(trifluoromethyl)benzamide] | > 50% |  | > 50% |  |  | 
5 | CC(NC(=O)c1cc(C#N)cc(C(F)(F)F)c1)c1ncnn1-c1ncccn1 (stereo not shown) [Example 57, 3-Cyano-N-[1-(2-pyrimidin-2-yl-1,2,4-triazol-3-yl)ethyl]-5-(trifluoromethyl)benzamide] | > 50% |  | > 50% |  |  | 
6 | C#CCN(C(=O)c1cc(C#N)cc(C(F)(F)F)c1)C(C)c1ncnn1-c1ncccn1 (stereo not shown) [Example 58, 3-Cyano-N-prop-2-ynyl-N-[1-(2-pyrimidin-2-yl-1,2,4-triazol-3-yl)ethyl]-5-(trifluoromethyl)benzamide] | > 50% | > 50% | > 50% |  |  | 
7 | CCN(C(=O)c1cc(C#N)cc(C(F)(F)F)c1)C(C)c1ncnn1-c1ncccn1 (stereo not shown) [Example 59, 3-Cyano-N-ethyl-N-[1-(2-pyrimidin-2-yl-1,2,4-triazol-3-yl)ethyl]-5-(trifluoromethyl)benzamide] | > 50% | > 50% | > 50% | 1.6 ppm | 14 ppm | 0.77 ppm
8 | CC(c1ncnn1-c1ncccn1)N(C)C(=O)c1cc(C#N)cc(C(F)(F)F)c1 (stereo not shown) [Example 60, 3-Cyano-N-methyl-N-[1-(2-pyrimidin-2-yl-1,2,4-triazol-3-yl)ethyl]-5-(trifluoromethyl)benzamide] | > 50% | > 50% | > 50% |  |  | 
9 | Cc1nc(C(C)N(CC2CC2)C(=O)c2cc(C(F)(F)F)cc(C(F)(F)F)c2)n(-c2ncccn2)n1 (stereo not shown) [Example 61, N-(Cyclopropylmethyl)-N-[1-(5-methyl-2-pyrimidin-2-yl-1,2,4-triazol-3-yl)ethyl]-3,5-bis(trifluoromethyl)benzamide] | > 50% | > 50% | > 50% |  |  | 
10 | CC(c1ncnn1-c1ncccn1)N(CC1CC1)C(=O)c1cc(Br)cc(C(F)(F)F)c1 (stereo not shown) [Example 62, 3-Bromo-N-(cyclopropylmethyl)-N-[1-(2-pyrimidin-2-yl-1,2,4-triazol-3-yl)ethyl]-5-(trifluoromethyl)benzamide] |  | > 50% | > 50% |  |  | 
11 | CC(NC(=O)c1cc(C(F)(F)F)cc(C(F)(F)F)c1)c1ncnn1-c1ncccn1 (stereo not shown) [Example 63, N-[1-(2-Pyrimidin-2-yl-1,2,4-triazol-3-yl)ethyl]-3,5-bis(trifluoromethyl)benzamide] | > 50% | > 50% | > 50% |  |  | 
12 | C[C@@H](c1ncnn1-c1ncc(F)cn1)N(CC1CC1)C(=O)c1cc(C(F)(F)F)cc(C(F)(F)F)c1 [Example 64, N-(Cyclopropylmethyl)-N-[(1S)-1-[2-(5-fluoropyrimidin-2-yl)-1,2,4-triazol-3-yl]ethyl]-3,5-bis(trifluoromethyl)benzamide] | > 50% |  | > 50% |  |  | 
13 | CC(c1ncnn1-c1ncccn1)N(C)C(=O)c1cc(C(F)(F)F)cc(C(F)(F)F)c1 (stereo not shown) [Example 65, N-Methyl-N-[1-(2-pyrimidin-2-yl-1,2,4-triazol-3-yl)ethyl]-3,5-bis(trifluoromethyl)benzamide] | > 50% | > 50% | > 50% |  |  | 
14 | C[C@H](NC(=O)c1cc(C(F)(F)F)cc(C(F)(F)F)c1)c1ncnn1-c1ncccn1 [Example 66, N-[(1S)-1-(2-Pyrimidin-2-yl-1,2,4-triazol-3-yl)ethyl]-3,5-bis(trifluoromethyl)benzamide] | > 50% |  | > 50% |  |  | 
15 | CC(c1ncnn1-c1ncccn1)N(C[Si](C)(C)C)C(=O)c1cc(C(F)(F)F)cc(C(F)(F)F)c1 (stereo not shown) [Example 67, N-[1-(2-pyrimidin-2-yl-1,2,4-triazol-3-yl)ethyl]-3,5-bis(trifluoromethyl)-N-(trimethylsilylmethyl)benzamide] | > 50% | > 50% | > 50% |  |  | 
16 | C[C@H](NC(=O)c1cccc(C#N)c1)c1ncnn1-c1ncc(F)cn1 [Example 68, 3-Cyano-N-[(1S)-1-[2-(5-fluoropyrimidin-2-yl)-1,2,4-triazol-3-yl]ethyl]benzamide] | > 50% | > 50% | > 50% |  |  | 
17 | C[C@H](NC(=O)c1cc(C(F)(F)F)cc(C(F)(F)F)c1)c1ncnn1-c1ncc(F)cn1 [Example 69, N-[(1S)-1-[2-(5-Fluoropyrimidin-2-yl)-1,2,4-triazol-3-yl]ethyl]-3,5-bis(trifluoromethyl)benzamide] | > 50% | > 50% | > 50% |  |  | 
18 | C[C@@H](c1ncnn1-c1ncccn1)N(CC1CC1)C(=S)c1cc(C(F)(F)F)cc(C(F)(F)F)c1 [Example 70] | > 50% | > 50% | > 50% |  |  | 
19 | CC(c1ncnn1-c1ncccn1)N(C)C(=O)c1cc(C(N)=S)cc(C(F)(F)F)c1 (stereo not shown) [Example 72, 3-Carbamothioyl-N-methyl-N-[1-(2-pyrimidin-2-yl-1,2,4-triazol-3-yl)ethyl]-5-(trifluoromethyl)benzamide] | > 50% |  | > 50% |  |  | 
20 | CCOC(OCC)c1nc(C(C)NC(=O)c2cc(C(F)(F)F)cc(C(F)(F)F)c2)n(-c2ncccn2)n1 (stereo not shown) [Example 73, N-[1-[5-(Diethoxymethyl)-2-pyrimidin-2-yl-1,2,4-triazol-3-yl]ethyl]-3,5-bis(trifluoromethyl)benzamide] | > 50% | > 50% |  |  |  | 
21 | COC(=O)c1nc(C(C)NC(=O)c2cc(C(F)(F)F)cc(C(F)(F)F)c2)n(-c2ncccn2)n1 (stereo not shown) [Example 74, Methyl 5-[1-[[3,5-bis(trifluoromethyl)benzoyl]amino]ethyl]-1-pyrimidin-2-yl-1,2,4-triazole-3-carboxylate] |  | > 50% |  |  |  | 
22 | C[C@@H](c1ncnn1-c1ncccn1)N(C)C(=O)c1cc(C(F)(F)F)cc(C(F)(F)F)c1 [Example 75, N-Methyl-N-[(1S)-1-(2-pyrimidin-2-yl-1,2,4-triazol-3-yl)ethyl]-3,5-bis(trifluoromethyl)benzamide] | > 50% | > 50% | > 50% |  |  | 
